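Where inhibition never reached the appropriate level, the endpoint shown equals the highest concentration tested. Otherwise, values were interpolated linearly from a five-concentration, 48-hour dose response in 96-well plates. GI50: concentration for 50% inhibition of growth.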 Activity calls are given as the source filed them. Cut-off read from the data, not from the text of the source: active = GI50 up to about 1.1 µM and inactive = higher.
Columns and labels:
Assay in all cases: NCI-60 cell line screen, 48 h
[1] = test system: T47D
[2] = test system: EKVX
[3] = test system: HT-29
[4] = test system: OVCAR-5
[5] = test system: SK-MEL-5
[6] = test system: COLO 205
[7] = test system: ACHN
[8] = test system: OVCAR-3
[9] = test system: HCT-15
[10] = test system: MDA-MB-231
[11] = test system: MDA-N
[12] = test system: U-251
[13] = test system: NCI-H522
[14] = test system: NCI-H23
[15] = test system: NCI-H460
[16] = test system: SK-OV-3
[17] = test system: A549
[18] = test system: SK-MEL-28
[19] = test system: OVCAR-4
[20] = test system: SW-620
[21] = test system: Hs-578T
[22] = test system: IGROV-1
[23] = test system: HOP-62
[24] = test system: CAKI-1
[25] = test system: DU-145
[26] = test system: MCF7
[27] = test system: SF-295
[28] = test system: UACC-257
[29] = test system: RXF 393
[30] = test system: HL-60
[31] = test system: SN12C
[32] = test system: HCC 2998
[33] = test system: M14
[34] = test system: OVCAR-8
[35] = test system: UACC-62
[36] = test system: RPMI-8226
[37] = test system: TK-10
[38] = test system: SNB-75
[39] = test system: HOP-92
[40] = test system: KM12
[41] = test system: PC-3
[42] = test system: 786-0
[43] = test system: HCT-116
[44] = test system: SF-268
[45] = test system: NCI/ADR-RES
[46] = test system: NCI-H226
[47] = test system: BT-549
[48] = test system: CCRF-CEM
[49] = test system: SK-MEL-2
[50] = test system: LOX IMVI
[51] = test system: SNB-19
[52] = test system: SF-539
[53] = test system: MOLT-4
[54] = test system: UO-31
[55] = test system: SR
[56] = test system: A498
[57] = test system: K562
[58] = test system: Malme-3M
[59] = test system: MDA-MB-435

c1ccc(-c2cn3c(nc4ccccc43)c(-c3ccccc3)n2)cc1
GI50 [1]: > 39.6 µM (inactive) | GI50 [2]: > 100 µM (inactive) | GI50 [3]: 71 µM (inactive) | GI50 [4]: > 54.2 µM (inactive) | GI50 [5]: 84.3 µM (inactive) | GI50 [6]: > 100 µM (inactive) | GI50 [7]: > 100 µM (inactive) | GI50 [8]: > 100 µM (inactive) | GI50 [9]: > 100 µM | GI50 [10]: > 100 µM (inactive) | GI50 [11]: > 31.6 µM (inactive) | GI50 [12]: 14.2 µM (inactive) | GI50 [13]: 35.2 µM (inactive) | GI50 [14]: 55.2 µM (inactive) | GI50 [15]: 58.1 µM (inactive) | GI50 [16]: 10.2 µM (inactive) | GI50 [17]: > 68.7 µM (inactive) | GI50 [18]: > 100 µM (inactive) | GI50 [19]: 4.56 µM (inactive) | GI50 [20]: > 100 µM (inactive) | GI50 [21]: 16.3 µM (inactive) | GI50 [22]: 42.9 µM (inactive) | GI50 [23]: 7.13 µM (inactive) | GI50 [24]: > 48.9 µM (inactive) | GI50 [25]: > 100 µM (inactive) | GI50 [26]: 69.7 µM (inactive) | GI50 [27]: 14.8 µM (inactive) | GI50 [28]: > 100 µM (inactive) | GI50 [29]: > 38 µM (inactive) | GI50 [30]: > 100 µM (inactive) | GI50 [31]: 65.8 µM (inactive) | GI50 [32]: > 100 µM (inactive) | GI50 [33]: > 100 µM (inactive) | GI50 [34]: 13.3 µM (inactive) | GI50 [35]: 12.4 µM (inactive) | GI50 [36]: > 100 µM (inactive) | GI50 [37]: > 59.6 µM (inactive) | GI50 [38]: 14.5 µM (inactive) | GI50 [39]: 16.9 µM (inactive) | GI50 [40]: > 100 µM (inactive) | GI50 [41]: > 57.7 µM (inactive) | GI50 [42]: 16.1 µM (inactive) | GI50 [43]: > 86.9 µM (inactive) | GI50 [44]: > 50.6 µM (inactive) | GI50 [45]: 47.6 µM (inactive) | GI50 [46]: > 60.8 µM (inactive) | GI50 [47]: 29.4 µM (inactive) | GI50 [48]: > 100 µM (inactive) | GI50 [49]: 30.1 µM (inactive) | GI50 [50]: 81.8 µM (inactive) | GI50 [51]: 16.8 µM (inactive) | GI50 [52]: 27.9 µM (inactive) | GI50 [53]: > 100 µM (inactive) | GI50 [54]: 37.7 µM (inactive) | GI50 [55]: > 100 µM (inactive) | GI50 [56]: 44.6 µM (inactive) | GI50 [57]: > 100 µM (inactive) | GI50 [58]: > 96.2 µM (inactive) | GI50 [59]: > 87.7 µM (inactive)

CC(C)C[C@H]1[C@@H](OCc2ccccc2)COS(=O)(=O)N1[C@H](C)c1ccccc1
GI50 [1]: 2.9 µM (inactive) | GI50 [2]: 22.1 µM (inactive) | GI50 [3]: 26.9 µM (inactive) | GI50 [4]: > 100 µM (inactive) | GI50 [5]: 5.55 µM (inactive) | GI50 [6]: > 72.6 µM (inactive) | GI50 [7]: 48 µM (inactive) | GI50 [8]: 20.6 µM (inactive) | GI50 [9]: 29.1 µM | GI50 [10]: 48 µM (inactive) | GI50 [11]: > 78.5 µM (inactive) | GI50 [12]: 15.2 µM (inactive) | GI50 [13]: 7.83 µM (inactive) | GI50 [14]: 6.98 µM (inactive) | GI50 [15]: 11.7 µM (inactive) | GI50 [16]: > 93.1 µM (inactive) | GI50 [17]: 29.5 µM (inactive) | GI50 [18]: > 100 µM (inactive) | GI50 [19]: > 100 µM (inactive) | GI50 [20]: > 100 µM (inactive) | GI50 [21]: > 100 µM (inactive) | GI50 [22]: > 100 µM (inactive) | GI50 [23]: > 84.1 µM (inactive) | GI50 [24]: > 100 µM (inactive) | GI50 [25]: 37.9 µM (inactive) | GI50 [26]: 21.7 µM (inactive) | GI50 [27]: 9.12 µM (inactive) | GI50 [28]: 20 µM (inactive) | GI50 [29]: 29.1 µM (inactive) | GI50 [30]: 6.11 µM (inactive) | GI50 [31]: 75.3 µM (inactive) | GI50 [32]: > 100 µM (inactive) | GI50 [33]: > 100 µM (inactive) | GI50 [34]: > 61.5 µM (inactive) | GI50 [35]: > 100 µM (inactive) | GI50 [36]: 4.05 µM (inactive) | GI50 [37]: 83 µM (inactive) | GI50 [38]: > 46.7 µM (inactive) | GI50 [39]: > 100 µM (inactive) | GI50 [40]: 47.1 µM (inactive) | GI50 [41]: 7.38 µM (inactive) | GI50 [42]: 23.4 µM (inactive) | GI50 [43]: 5.24 µM (inactive) | GI50 [44]: > 93.1 µM (inactive) | GI50 [45]: 52.2 µM (inactive) | GI50 [46]: > 92 µM (inactive) | GI50 [47]: > 58.2 µM (inactive) | GI50 [48]: 8.71 µM (inactive) | GI50 [49]: 44.6 µM (inactive) | GI50 [50]: 13.4 µM (inactive) | GI50 [51]: > 46 µM (inactive) | GI50 [52]: > 100 µM (inactive) | GI50 [53]: 3.8 µM (inactive) | GI50 [54]: 9.95 µM (inactive) | GI50 [55]: 3.24 µM (inactive) | GI50 [56]: > 100 µM (inactive) | GI50 [57]: 5.24 µM (inactive) | GI50 [58]: > 27.2 µM (inactive) | GI50 [59]: 49.7 µM (inactive)

Cc1c2ncccc2cc2oc3ccccc3c(=O)c12
GI50 [1]: 18.1 µM (inactive) | GI50 [2]: 11.1 µM (inactive) | GI50 [3]: 35.6 µM (inactive) | GI50 [4]: 16.1 µM (inactive) | GI50 [5]: 18.2 µM (inactive) | GI50 [6]: 31.2 µM (inactive) | GI50 [7]: 21.9 µM (inactive) | GI50 [8]: 33.9 µM (inactive) | GI50 [9]: 41.8 µM | GI50 [10]: 92 µM (inactive) | GI50 [11]: 63.4 µM (inactive) | GI50 [13]: 31.5 µM (inactive) | GI50 [14]: 47.9 µM (inactive) | GI50 [15]: 5.46 µM (inactive) | GI50 [16]: > 100 µM (inactive) | GI50 [17]: 12.9 µM (inactive) | GI50 [18]: > 100 µM (inactive) | GI50 [19]: 35.8 µM (inactive) | GI50 [20]: 33.5 µM (inactive) | GI50 [21]: > 100 µM (inactive) | GI50 [22]: 4.63 µM (inactive) | GI50 [23]: 30.9 µM (inactive) | GI50 [24]: 17.7 µM (inactive) | GI50 [25]: 29.2 µM (inactive) | GI50 [26]: 5.11 µM (inactive) | GI50 [27]: 31.6 µM (inactive) | GI50 [28]: 58.5 µM (inactive) | GI50 [29]: 61.4 µM (inactive) | GI50 [30]: 34 µM (inactive) | GI50 [31]: 24 µM (inactive) | GI50 [32]: 60.7 µM (inactive) | GI50 [34]: 80.2 µM (inactive) | GI50 [35]: 50 µM (inactive) | GI50 [36]: > 100 µM (inactive) | GI50 [37]: 91.4 µM (inactive) | GI50 [38]: > 100 µM (inactive) | GI50 [39]: 28.3 µM (inactive) | GI50 [40]: 55.6 µM (inactive) | GI50 [41]: 75.7 µM (inactive) | GI50 [42]: > 100 µM (inactive) | GI50 [43]: 31.3 µM (inactive) | GI50 [44]: 41.7 µM (inactive) | GI50 [45]: 21.4 µM (inactive) | GI50 [46]: 38.4 µM (inactive) | GI50 [47]: 55.8 µM (inactive) | GI50 [48]: 16 µM (inactive) | GI50 [49]: > 100 µM (inactive) | GI50 [50]: 11.1 µM (inactive) | GI50 [52]: > 100 µM (inactive) | GI50 [53]: 2.94 µM (inactive) | GI50 [54]: 7.06 µM (inactive) | GI50 [55]: 41.2 µM (inactive) | GI50 [56]: 81.5 µM (inactive) | GI50 [57]: 24.9 µM (inactive) | GI50 [58]: 68.4 µM (inactive) | GI50 [59]: 56.8 µM (inactive)

— ChEMBL document CHEMBL1201862, “PubChem BioAssay data set” (2004)
